The source of these data is PMC3527664, “Kinetic properties and small-molecule inhibition of human myosin-6” (Febs Letters, 2012).

Assay [1] concerns the target T1, human myosin-6 (M6-2R) (Homo sapiens, UniProt Q9UM54). Nature of the assay: stopped-flow, ATP binding to pyrene-acto•M6-2R; steady-state ATPase turnover. The arrangement: gene MYO6; M6-2R (human myosin-6 motor domain, amino acids 1-816, fused to artificial lever); with F-actin (pyrene-actin). The text has this:
stopped-flow, ATP binding to pyrene-acto•M6-2R; steady-state ATPase turnover on human myosin-6 (M6-2R) | ATP binding to the complex formed by pyrene–actin and M6-2R show a linear dependence on [ATP]

Assay [2] has as its target T1, human myosin-6 (M6-2R). Nature of the assay: stopped-flow fluorescence, KD = k−D/k+D. Type of assay: binding. The arrangement: gene MYO6; M6-2R (human myosin-6 motor domain, amino acids 1-816, fused to artificial lever). The note with it: read-out: Hs Myosin-6 ^a^, ^b.
The target in the next assay is T2, human myosin-6 (Homo sapiens, UniProt Q9UM54).
T2 construct: gene MYO6; human myosin-6 motor domain construct M6-2R (amino acids 1-816)
Briefly: myosin-6 ATPase assay; MST affinity ranking. Type of assay: biochemical.

The target in assay [3] is T1, human myosin-6 (M6-2R). Nature of the assay: stopped-flow fluorescence, second-order binding rate constant K1k+[…]. More on the design: gene MYO6; M6-2R (human myosin-6 motor domain, amino acids 1-816, fused to artificial lever).
In assay [4] the target is T1, human myosin-6 (M6-2R). Briefly: actin-activated ATPase assay (NADH-coupled), biphasic inhibition; binding also by MST (data not shown). In kind it is biochemical. The arrangement: gene MYO6; amino acids 1-816 of human myosin-6 motor domain fused to an artificial lever derived from Dictyostelium discoideum α-actinin (M6-2R); with F-actin (rabbit skeletal muscle); calmodulin associated with insert-2.

T1 sequence (Q9UM54 1-816): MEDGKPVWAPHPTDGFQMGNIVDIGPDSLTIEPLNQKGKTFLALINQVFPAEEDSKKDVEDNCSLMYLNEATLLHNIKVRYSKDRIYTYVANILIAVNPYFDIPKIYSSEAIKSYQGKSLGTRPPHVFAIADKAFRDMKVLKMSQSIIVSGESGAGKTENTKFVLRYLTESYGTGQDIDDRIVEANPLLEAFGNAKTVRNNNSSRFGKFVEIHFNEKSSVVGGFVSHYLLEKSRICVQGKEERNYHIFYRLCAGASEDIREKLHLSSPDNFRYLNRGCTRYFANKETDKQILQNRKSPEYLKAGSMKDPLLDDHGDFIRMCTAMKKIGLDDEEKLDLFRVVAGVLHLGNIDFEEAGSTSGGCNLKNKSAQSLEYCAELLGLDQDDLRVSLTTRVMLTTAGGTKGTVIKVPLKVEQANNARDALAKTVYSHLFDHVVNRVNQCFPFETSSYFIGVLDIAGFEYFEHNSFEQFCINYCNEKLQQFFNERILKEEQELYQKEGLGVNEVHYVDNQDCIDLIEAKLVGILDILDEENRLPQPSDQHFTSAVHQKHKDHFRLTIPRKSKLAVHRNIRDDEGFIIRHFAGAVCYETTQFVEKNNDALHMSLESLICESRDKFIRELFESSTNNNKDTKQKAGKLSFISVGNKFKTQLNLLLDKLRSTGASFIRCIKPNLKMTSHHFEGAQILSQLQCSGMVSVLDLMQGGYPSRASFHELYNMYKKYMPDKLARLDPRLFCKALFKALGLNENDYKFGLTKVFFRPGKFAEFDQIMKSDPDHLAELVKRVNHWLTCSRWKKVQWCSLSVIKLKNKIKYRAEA
T2 sequence (Q9UM54 1-816): as above

On human myosin-6 (M6-2R) [1], `Nc1ncnc2c1ncn2[C@@H]1O[C@H](COP(=O)(O)OP(=O)(O)OP(=O)(O)O)[C@@H](O)[C@H]1O` [ATP] had an on-rate (kon) of 11000 ± 300 M⁻¹ s⁻¹.
Consider mantADP, for which, on human myosin-6 (M6-2R) [2], the Kd came out at 2000 ± 150 nM.
Take `Oc1c(Br)c(Br)c(Br)c(Br)c1Br` [pentabromophenol]: the “myosin-6 ATPase assay; MST affinity ranking” value on human myosin-6 is “Pentabromophenol and TIP inhibit myosin-6 ATPase activity in the low micromolar range”.
As for `CNc1ccccc1C(=O)O[C@H]1C[C@H](n2cnc3c(N)ncnc32)O[C@@H]1COP(=O)(O)OP(=O)(O)OP(=O)(O)O` [d-mantATP, 2′-deoxy-3′-O-(N′-methylanthraniloyl)adenosine-5′-O-triphosphate], the association rate constant (kon) on human myosin-6 (M6-2R) [3] is 50000 ± 10000 M⁻¹ s⁻¹.
As to `Oc1c(I)cc(I)cc1I` [TIP, 2,4,6-triiodophenol], the Ki on human myosin-6 (M6-2R) [4] stood at 800 ± 500 nM.

By kon is commonly meant the rate constant with which the complex forms. One may read the Ki as a dissociation constant, usually derived from enzyme kinetics or from competition with a known ligand. High values mean weaker binding, low ones tighter binding.
